Source: BindingDB's records for doi:10.1021/jm00073a012 (Glaxo Group Research, 1993)

Biological target: T1, Dimer of Gag-Pol polyprotein [489-587] (Human immunodeficiency virus 1, UniProt P12497)
T1 construct: 489-587
Test: Protease Inhibition Assay
Conditions: pH 6; 37 °C
Description: IC50 values were obtained by assaying the enzyme against the synthetic substrate peptide KQGTVSFNFPQIT, which was tritiated at the proline residue, and then was coupled via its N-terminal lysine to an Affi-gel bead mixture. The assay was performed in 96-well microtiter filtration plates. The plates containing HIV protease and radiolabeled substrate beads were incubated with or without inhibitor. After filtration, radioactivity was measured using an LKB 1205 Microbeta liquid scintillation counter. IC50 determinations were performed in duplicate at each concentration with mean values used for data analysis.

Row | SMILES | IC50
1 | CC(C)C[C@H](CO)NC(=O)[C@@H]1N[C@@H]([C@H](NC(=O)Cc2ccccc2)C(=O)NCc2ccccc2)SC1(C)C [(2R,4S)-2-[(R)-(benzylcarbamoyl)(1-phenylacetamido)methyl]-N-[(2R)-1-hydroxy-4-methylpentan-2-yl]-5,5-dimethyl-1,3-thiazolidine-4-carboxamide] | > 4.6 µM
2 | CC1(C)S[C@H]([C@H](NC(=O)Cc2ccccc2)C(=O)NCc2ccccc2)N[C@H]1C(=O)NCCNC(=O)[C@@H]1N[C@@H]([C@H](NC(=O)Cc2ccccc2)C(=O)NCc2ccccc2)SC1(C)C [(2R,4S)-2-[(R)-(benzylcarbamoyl)(1-phenylacetamido)methyl]-N-(2-{[(2R,4S)-2-[(R)-(benzylcarbamoyl)(1-phenylacetamido)methyl]-5,5-dimethyl-1,3-thiazolidin-4-yl]formamido}ethyl)-5,5-dimethyl-1,3-thiazolidine-4-carboxamide] | 0.0009 µM
3 | CC(C)[C@H](CO)NC(=O)[C@@H]1N[C@@H]([C@H](NC(=O)Cc2ccccc2)C(=O)NCc2ccccc2)SC1(C)C [(2R,4S)-2-[(R)-(benzylcarbamoyl)(1-phenylacetamido)methyl]-N-[(2R)-1-hydroxy-3-methylbutan-2-yl]-5,5-dimethyl-1,3-thiazolidine-4-carboxamide] | > 4.7 µM
4 | C[C@H](Cc1ccccc1)NC(=O)[C@@H]1N[C@@H]([C@H](NC(=O)Cc2ccccc2)C(=O)NCc2ccccc2)SC1(C)C [(2R,4S)-2-[(R)-(benzylcarbamoyl)(1-phenylacetamido)methyl]-5,5-dimethyl-N-[(2R)-1-phenylpropan-2-yl]-1,3-thiazolidine-4-carboxamide] | > 180 µM
5 | CC1(C)S[C@H]([C@H](NC(=O)Cc2ccccc2)C(=O)NCc2ccccc2)N[C@H]1C(=O)N[C@H](CO)Cc1ccccc1 [(2R,4S)-2-[(R)-(benzylcarbamoyl)(1-phenylacetamido)methyl]-N-[(2S)-1-hydroxy-3-phenylpropan-2-yl]-5,5-dimethyl-1,3-thiazolidine-4-carboxamide] | > 170 µM
6 | C[C@@H](Cc1ccccc1)NC(=O)[C@@H]1N[C@@H]([C@H](NC(=O)Cc2ccccc2)C(=O)NCc2ccccc2)SC1(C)C [(2R,4S)-2-[(R)-(benzylcarbamoyl)(1-phenylacetamido)methyl]-5,5-dimethyl-N-[(2S)-1-phenylpropan-2-yl]-1,3-thiazolidine-4-carboxamide] | > 180 µM
7 | C[C@H](CO)NC(=O)[C@@H]1N[C@@H]([C@H](NC(=O)Cc2ccccc2)C(=O)NCc2ccccc2)SC1(C)C [(2R,4S)-2-[(R)-(benzylcarbamoyl)(1-phenylacetamido)methyl]-N-[(2R)-1-hydroxypropan-2-yl]-5,5-dimethyl-1,3-thiazolidine-4-carboxamide] | > 20 µM
8 | CC1(C)S[C@H]([C@H](NC(=O)Cc2ccccc2)C(=O)NCc2ccccc2)N[C@H]1C(N)=O [[2R-[2a(R*),4B]]-4-Carbamoyl-5,5-dimethyl-a-[(phenylacetyl)amino]-N-(phenylmethyl)-2-thiazolidineacetamide] | > 230 µM
9 | CCC(C)C(CO)NC(=O)[C@@H]1N[C@@H]([C@H](NC(=O)Cc2ccccc2)C(=O)NCc2ccccc2)SC1(C)C (stereo partly drawn) [(2R,4S)-2-[(R)-(benzylcarbamoyl)(1-phenylacetamido)methyl]-N-(1-hydroxy-3-methylpentan-2-yl)-5,5-dimethyl-1,3-thiazolidine-4-carboxamide] | > 0.54 µM
